Laboratory results taken from publication PMC10581904, “Structural basis for abscisic acid efflux mediated by ABCG25 in Arabidopsis thaliana” (Nature Plants, 2023).
Positions count from the first letter of the chain named. Numbers in names are those of the source. One block for each molecule: values may come before it.

Columns and labels:
ABCG25 [1] = biological target: T1, ABCG25 (Arabidopsis thaliana, UniProt Q84TH5); assay: [3H]-ABA loading and efflux assays in Sf9 cells; assay type: cell-based; set-up: full-length, N-terminal Flag tag, baculovirus / Sf9 cells; conditions: 6.6 nM, pH 5.5; labelled compound
T1 sequence (Q84TH5 1-662): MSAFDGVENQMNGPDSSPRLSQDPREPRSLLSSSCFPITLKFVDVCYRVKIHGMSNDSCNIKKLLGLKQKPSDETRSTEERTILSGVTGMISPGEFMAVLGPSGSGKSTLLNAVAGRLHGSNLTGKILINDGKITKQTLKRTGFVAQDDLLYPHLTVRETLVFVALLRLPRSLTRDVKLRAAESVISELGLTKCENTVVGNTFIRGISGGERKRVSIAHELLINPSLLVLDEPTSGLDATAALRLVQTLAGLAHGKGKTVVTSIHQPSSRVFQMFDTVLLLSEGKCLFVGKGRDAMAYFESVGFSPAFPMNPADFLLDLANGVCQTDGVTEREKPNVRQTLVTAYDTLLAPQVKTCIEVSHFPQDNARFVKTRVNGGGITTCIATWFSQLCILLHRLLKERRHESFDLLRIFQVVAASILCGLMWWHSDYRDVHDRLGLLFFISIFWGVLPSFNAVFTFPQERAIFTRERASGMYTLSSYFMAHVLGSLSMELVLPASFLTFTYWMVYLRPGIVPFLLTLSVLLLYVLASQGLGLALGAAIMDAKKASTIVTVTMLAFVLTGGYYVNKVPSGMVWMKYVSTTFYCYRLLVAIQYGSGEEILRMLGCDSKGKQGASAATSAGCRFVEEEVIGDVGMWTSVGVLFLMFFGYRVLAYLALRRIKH

ABCG25 [2] = biological target: T1, ABCG25; assay: ATPase activity in liposomes reconstituted with or without cholesterol; assay type: biochemical; set-up: full-length, N-terminal Flag tag, baculovirus / Sf9 cells, homodimer, purified in DDM or digitonin (with CHS extraction); conditions: lipid:cholesterol 9:1 (w/w), proteoliposomes; direct action not proven (sterol identity in the cavity not settled)
ABCG25 [3] = biological target: T1, ABCG25; assay: stimulation of ATPase activity (colorimetric Pi release), allosteric sigmoidal fit; assay type: biochemical; set-up: full-length, N-terminal Flag tag, baculovirus / Sf9 cells, homodimer, purified in DDM or digitonin (with CHS extraction)
[4] = substrate: Nc1ncnc2c1ncn2[C@@H]1O[C@H](COP(=O)(O)OP(=O)(O)OP(=O)(O)O)[C@@H](O)[C@H]1O; assay: ATPase activity (colorimetric Pi release), Michaelis-Menten fit; assay type: biochemical, Arabidopsis thaliana; conditions: 10 mM MgCl2, pH 7.4, 37 °C, detergent micelle (0.01% DDM), no ABA
[5] = biological target: the molecule itself; assay: cryo-EM structure; single particle analysis of purified ABCG25WT in 25 mM HEPES-NaOH pH 7.4, 150 mM NaCl, 0.03% digitonin; apo or with 2 mM ABA; C2 symmetry applied
[6] = biological target: the molecule itself; assay: cryo-EM structure; single particle analysis of purified E232Q ABCG25 in digitonin, incubated with 5 mM ATP and 10 mM MgCl2 on ice for 60 min

Molecule: CC1=CC(=O)CC(C)(C)[C@@]1(O)/C=C/C(C)=C\C(=O)O [[3H]-ABA]
- residual [3H]-ABA (ABCG25 [1]): residual [^3H]-ABA substantially decreased in cells expressing ABCG25

Molecule: CC(C)CCC[C@@H](C)[C@H]1CC[C@H]2[C@@H]3CC=C4C[C@@H](O)CC[C@]4(C)[C@H]3CC[C@]12C [cholesterol]
- ATPase activity (ABCG25 [2]): cholesterol was added during liposomes reconstitution, the ATPase activity of ABCG25 was significantly reduced

- EC50 (ABCG25 [3]): 680 nM
Molecule: CC1=CC(=O)CC(C)(C)[C@@]1(O)/C=C/C(C)=C/C(=O)O [ABA, (S)-(+)-Abscisic acid]

B1: wild-type ABCG25 from Arabidopsis thaliana (natural protein, UniProt Q84TH5 1-662, looked up)
chain: T1 sequence (Q84TH5 1-662)
notes: ABCG25, Arabidopsis thaliana, UniProt Q84TH5, full length; Homodimer of a half-transporter (one NBD and one TMD per chain); No cleavage of the Flag tag is described; the protein was eluted with Flag peptide; also called ABCG25WT; WT
- Km [4]: 0.79 mM
- stoichiometry N [5]: 2

B2: ABCG25 E232Q catalytic mutant (natural protein, Arabidopsis thaliana, UniProt Q84TH5 1-662, looked up)
chain: T1 sequence (Q84TH5 1-662) with E232Q
notes: ABCG25, Arabidopsis thaliana, UniProt Q84TH5, full length, with E232Q in the Walker B motif of the NBD; Made and purified in the same way as the wild type; incubated with ATP and Mg2+ before grid preparation; also called ABCG25EQ; E232Q ABCG25
- stoichiometry N [6]: 2
